The subject of this data set is rodent lifetime carcinogenesis bioassay, tumor incidence TD50. Nature of the data set: carcinogenic potency in animals, long-term in vivo studies, CPDB compilation (AID 1745844).

Each structure is given as a SMILES string. The source made the active and inactive calls. How the calls were made is not given here.

As for `Cc1ccc(Cc2cnc(NCCSCc3ccc(CN(C)C)o3)[nH]c2=O)cn1`, the carcinogen call (mouse, strain SK&F Swiss, females, by gavage, site: gastric mucosa, lesion: carcinoid tumor, malignant, dosed 91 weeks, study length 91 weeks) was “negative (inactive)” and the carcinogen call (mouse, strain SK&F Swiss, males, by gavage, site: gastric mucosa, lesion: carcinoid tumor, malignant, dosed 91 weeks, study length 91 weeks) was “negative (inactive)”. Also, the TD50 runs as follows: (rat, strain SK&F Wistar, females, by gavage, site: gastric mucosa, lesion: carcinoid tumor, malignant, dosed 100 weeks, study length 100 weeks) 2990 mg/kg/day; (rat, strain SK&F Wistar, males, by gavage, site: gastric mucosa, lesion: carcinoid tumor, malignant, dosed 100 weeks, study length 100 weeks) 3830 mg/kg/day.

Turning to `O=CCCCC=O`, the TD50 (mouse, strain B6C3F1, females, inhaled, site: any site (literature study), lesion: several types, types named in the paper, dosed 104 weeks, study length 105 weeks) was 3.08 mg/kg/day (inactive); the TD50 (mouse, strain B6C3F1, females, inhaled, site: lung, lesion: adenocarcinoma, dosed 52 weeks, study length 52 weeks) is 0.54 mg/kg/day (inactive); the TD50 (mouse, strain B6C3F1, females, inhaled, site: lung, lesion: adenocarcinoma, dosed 78 weeks, study length 78 weeks) was 0.347 mg/kg/day (inactive); the TD50 (mouse, strain B6C3F1, females, inhaled, site: lung, lesion: alveolar/bronchiolar adenoma + alveolar/bronchiolar carcinoma, dosed 104 weeks, study length 105 weeks) amounted to 17.4 mg/kg/day; the TD50 (mouse, strain B6C3F1, males, inhaled, site: lung, lesion: adenocarcinoma, dosed 78 weeks, study length 78 weeks) was 1.14 mg/kg/day (inactive); the TD50 (rat, strain Fischer 344, females, inhaled, site: any site (literature study), lesion: several types, types named in the paper, dosed 104 weeks, study length 104 weeks) was 0.125 mg/kg/day (inactive). The TD50 (rat, strain Fischer 344, males, inhaled, site: any site (literature study), lesion: several types, types named in the paper, dosed 104 weeks, study length 104 weeks) is 0.239 mg/kg/day (inactive). For the same compound, the carcinogen call by setting is: (mouse, strain B6C3F1, females, inhaled, site: liver, lesion: one or several types, types not named, dosed 52 weeks, study length 52 weeks) “negative (inactive)”; (mouse, strain B6C3F1, females, inhaled, site: liver, lesion: one or several types, types not named, dosed 78 weeks, study length 78 weeks) “negative (inactive)”; (mouse, strain B6C3F1, males, inhaled, site: any site (literature study), lesion: several types, types named in the paper, dosed 104 weeks, study length 104 weeks) “negative (inactive)”; (mouse, strain B6C3F1, males, inhaled, site: liver, lesion: hepatocellular carcinoma, dosed 52 weeks, study length 52 weeks) “negative (inactive)”; (mouse, strain B6C3F1, males, inhaled, site: liver, lesion: hepatocellular carcinoma, dosed 78 weeks, study length 78 weeks) “negative (inactive)”; (mouse, strain B6C3F1, males, inhaled, site: lung, lesion: adenocarcinoma, dosed 52 weeks, study length 52 weeks) “negative (inactive)”.

As for `Cc1ccc(C)c(OCCCC(C)(C)C(=O)O)c1`, the TD50 reads like this: (mouse, strain Charles River CD1, females, in feed, site: any site (literature study), lesion: several types, types named in the paper, dosed 78 weeks, study length 78 weeks) 1690 mg/kg/day (inactive); (mouse, strain Charles River CD1, females, in feed, site: liver, lesion: hepatocellular adenoma, dosed 78 weeks, study length 78 weeks) 6600 mg/kg/day (inactive); (mouse, strain Charles River CD1, females, in feed, site: lung, lesion: several types, types named in the paper, dosed 78 weeks, study length 78 weeks) 11800 mg/kg/day (inactive); (mouse, strain Charles River CD1, males, in feed, site: liver, lesion: several types, types named in the paper, dosed 78 weeks, study length 78 weeks) 1660 mg/kg/day (inactive); (rat, strain Charles River CD (Sprague-Dawley), females, in feed, site: liver, lesion: hepatocellular carcinoma, dosed 104 weeks, study length 104 weeks) 504 mg/kg/day (inactive); (rat, strain Charles River CD (Sprague-Dawley), males, in feed, site: adrenal gland, lesion: pheochromocytoma, dosed 104 weeks, study length 104 weeks) 85.9 mg/kg/day. Further, the TD50 was 196 mg/kg/day (rat, strain Charles River CD (Sprague-Dawley), males, in feed, site: any site (literature study), lesion: benign tumor, dosed 104 weeks, study length 104 weeks); 202 mg/kg/day (rat, strain Charles River CD (Sprague-Dawley), males, in feed, site: any site (literature study), lesion: several types, types named in the paper, dosed 104 weeks, study length 104 weeks); 247 mg/kg/day (rat, strain Charles River CD (Sprague-Dawley), males, in feed, site: liver, lesion: hepatocellular carcinoma, dosed 104 weeks, study length 104 weeks); 161 mg/kg/day (rat, strain Charles River CD (Sprague-Dawley), males, in feed, site: pancreas, lesion: several types, types named in the paper, dosed 104 weeks, study length 104 weeks); 516 mg/kg/day (rat, strain Charles River CD (Sprague-Dawley), males, in feed, site: testis, lesion: interstitial-cell tumor, dosed 104 weeks, study length 104 weeks). Further, the carcinogen call runs as follows: (mouse, strain Charles River CD1, males, in feed, site: any site (literature study), lesion: several types, types named in the paper, dosed 78 weeks, study length 78 weeks) “negative (inactive)”; (mouse, strain Charles River CD1, males, in feed, site: lung, lesion: several types, types named in the paper, dosed 78 weeks, study length 78 weeks) “negative (inactive)”; (rat, strain Charles River CD (Sprague-Dawley), females, in feed, site: any site (literature study), lesion: several types, types named in the paper, dosed 104 weeks, study length 104 weeks) “negative (inactive)”.

Turning to `CCCCC/C=N/N(C)C=O`, the TD50 was 180 mg/kg/day (mouse, strain Swiss, females, by gavage, site: liver, lesion: hepatocellular carcinoma, dosed 52 weeks, study length 122 weeks); 23.3 mg/kg/day (mouse, strain Swiss, females, by gavage, site: liver, lesion: hepatoma, benign, dosed 52 weeks, study length 122 weeks); 19.9 mg/kg/day (mouse, strain Swiss, females, by gavage, site: liver, lesion: several types, types named in the paper, dosed 52 weeks, study length 122 weeks); 8.73 mg/kg/day (mouse, strain Swiss, females, by gavage, site: lung, lesion: adenocarcinoma, dosed 52 weeks, study length 122 weeks); 4.68 mg/kg/day (mouse, strain Swiss, females, by gavage, site: lung, lesion: adenoma, dosed 52 weeks, study length 122 weeks); 2.96 mg/kg/day (mouse, strain Swiss, females, by gavage, site: lung, lesion: several types, types named in the paper, dosed 52 weeks, study length 122 weeks). Also, the TD50 by setting is: (mouse, strain Swiss, males, by gavage, site: liver, lesion: hepatocellular carcinoma, dosed 52 weeks, study length 128 weeks) 115 mg/kg/day; (mouse, strain Swiss, males, by gavage, site: liver, lesion: hepatoma, benign, dosed 52 weeks, study length 128 weeks) 45.4 mg/kg/day; (mouse, strain Swiss, males, by gavage, site: liver, lesion: several types, types named in the paper, dosed 52 weeks, study length 128 weeks) 31.4 mg/kg/day; (mouse, strain Swiss, males, by gavage, site: lung, lesion: adenocarcinoma, dosed 52 weeks, study length 128 weeks) 5.52 mg/kg/day; (mouse, strain Swiss, males, by gavage, site: lung, lesion: adenoma, dosed 52 weeks, study length 128 weeks) 6.63 mg/kg/day; (mouse, strain Swiss, males, by gavage, site: lung, lesion: several types, types named in the paper, dosed 52 weeks, study length 128 weeks) 1.92 mg/kg/day. Moreover, the TD50 by setting is: (mouse, strain Swiss, males, by gavage, site: preputial gland, lesion: several types, types named in the paper, dosed 52 weeks, study length 128 weeks) 6.51 mg/kg/day; (mouse, strain Swiss, males, by gavage, site: preputial gland, lesion: squamous-cell carcinoma, dosed 52 weeks, study length 128 weeks) 8.03 mg/kg/day; (mouse, strain Swiss, males, by gavage, site: preputial gland, lesion: squamous-cell papilloma, dosed 52 weeks, study length 128 weeks) 93.3 mg/kg/day.

The term TD50 denotes the dose at which the toxic effect under study appears in half of the subjects.
